Consider 24 compounds from PubChem BioAssay AID2202558 (NIEHS Division of Translational Toxicology (DTT)).

Inconclusive results are not listed. Activity calls are given as the source filed them. No rule for the calls is given here.

The test system of this data set is mouse/rat in vivo micronucleus assay, summary call. As to the kind of experiment: In vivo micronucleus assay summary data. The source says:
The erythrocyte micronucleus test examines the ability of substances to cause chromosome damage in developing red blood cells inside bone marrow. A micronucleus (literally, "little nucleus") is a biomarker of structural chromosome damage (e.g., breaks) and changes in chromosome number (e.g., chromosome loss). If a chromosome is broken or fails to migrate properly with other chromosomes during cell division, the broken piece or lost chromosome will form a small (micro) nucleus of its own in one of the two daughter cells produced. Detection of chromosomal damage is important because it has been linked to birth defects, infertility, and certain diseases, including cancer.
The micronucleus test is performed in rapidly dividing cell populations, and bone marrow is a site of rapid blood cell division. Both bone marrow and peripheral blood samples can be examined for the presence of micronuclei in red blood cells.
Animals are treated with a test substance once or daily over a period of time, and the frequency of micronucleated cells is determined 24-48 hours after the final treatment, depending on the source of the cells (bone marrow or blood) that are examined and the treatment regimen.
The test subjects are rodents (rats or mice) that are exposed to the test substance, usually by oral gavage or injection. Typically, one to three daily treatments of the test substance are administered over a range of doses; the highest dose tested is near the maximum tolerated dose. Groups of negative and positive control animals are included for each test. Bone marrow samples are obtained from all animals 24 hours after the last treatment, and red blood cells are examined for the presence of micronuclei.
B. Peripheral Blood Tests
Micronucleus tests are performed on male and female rodents that are exposed to the test substance orally, dermally, or by inhalation in subchronic (e.g., 28 or 90 days) or short term (e.g., 48-72 hours) toxicity studies. 24 to 48 hours after the final exposure, peripheral blood samples are obtained and red blood cells are examined for the presence of micronuclei. Samples may be examined using standard slide scoring procedures or automated flow cytometric approaches. Since 2007, NTP has routinely relied on flow cytometry to evaluate the frequency of micronucleated cells in peripheral blood.
Peripheral blood micronucleus assays are typically integrated into all NTP toxicity studies, and they also lend themselves to serial monitoring of micronucleus frequencies over time, since blood samples can be obtained without the need to sacrifice the animals.
Blood or bone marrow samples from treated animals are compared to samples from untreated animals. With the slide-based approach for data acquisition, 1000-2000 cells were scored per animal. Using flow cytometric procedures to evaluate blood samples, 20,000 immature red blood cells and around one million mature red blood cells are examined per animal, resulting in a marked increase in the ability to detect small changes in the frequency of micronucleated red blood cells. The data is analyzed using statistical methods to determine if there is a significant increase in the frequency of cells containing micronuclei. Both dose-related responses and the magnitude of response for each independent dose group are considered during the evaluation of the data. For a positive test, both a significant dose response (trend) and at least one significant dose group are required. If only one of these measures is present, the test is determined to be questionable. The absence of either condition results in a negative test. The final conclusions for micronucleus tests are determined by considering the results of statistical analyses, reproducibility of any observed effects, and the magnitude of the effects. Ultimately, both the biological significance as well as statistical significance is considered when reaching a final conclusion.
[…]

Turning to `c1ccc(N=NNc2ccccc2)cc1`, the outcome is “active; positive”.

On to `O=C(O)CCCc1ccc(N(CCCl)CCCl)cc1`, for which the outcome is “active; positive”.

Take `Oc1c(Cl)c(Cl)c(Cl)c(Cl)c1Cl`: the outcome was “inactive; negative”.

With `[O]=[Sb][O][Sb]=[O]`, the outcome was “active; positive”.

As for `O=S(=O)(c1ccc(Cl)cc1)c1ccc(Cl)cc1`, the outcome is “active; positive”.

Consider `S=c1[nH]c2ccccc2s1`, for which the outcome is “inactive; negative”.

On to `O=C(O)CS`, for which the outcome is “active; positive”.

For `CBr`, the outcome is “active; positive”.

With `C=C(C)c1ccccc1`, the outcome was “active; positive”.

In the case of `C=CC=C`, the outcome is “active; positive (nonstandard protocol)”.

Regarding `O=C1O[C@H]([C@@H](O)CO)C(O)=C1O`, the outcome was “active; positive”.

As to `OCC1CO1` (centres undefined), the outcome is “active; positive”.

In the case of `CC1C(=O)C[C@]2(C(C)C)C[C@H]12` (some centres undefined), the outcome is “active; positive”.

With `Oc1ccc(/C=C/c2cc(O)cc(O)c2)cc1`, the outcome was “inactive; negative”.

Consider `FC(F)(F)c1ccc(Cl)cc1`, for which the outcome is “active; positive”.

Consider `Cc1c(N)cccc1N`, for which the outcome was “active; positive”.

For `Oc1cccc(O)c1`, the outcome is “active; positive”.

With `C=CCOC(C)=O`, the outcome was “active; weakly positive”.

Turning to `CC1=CC(=O)NS(=O)(=O)O1`, the outcome is “active; positive”.

Regarding `BrCCBr`, the outcome is “active; positive”.

On to `CCOS(C)(=O)=O`, for which the outcome was “active; positive”.

Take `O=C(O)C(Cl)Cl`: the outcome was “active; positive”.

Consider `C=CC(N)=O`, for which the outcome is “active; positive”.

`ClC(Cl)Cl`: the outcome is “active; positive”.
